Key:
[1] = biological target: 5-HT2A (Homo sapiens, UniProt P28223); assay: NIMH PDSP primary binding screen, 5-HT2A; details: read-out: Inhibition (%) 5-HT2A
[2] = Microsomal stability assay in rat liver microsomes; assay type: in vitro ADME; details: pH 7.4
[3] = biological target: T1, 5-HT2C (Homo sapiens, UniProt P28335); assay: NIMH PDSP primary binding screen, 5-HT2C; details: read-out: Inhibition (%) 5-HT2C
T1 sequence (P28335 33-458): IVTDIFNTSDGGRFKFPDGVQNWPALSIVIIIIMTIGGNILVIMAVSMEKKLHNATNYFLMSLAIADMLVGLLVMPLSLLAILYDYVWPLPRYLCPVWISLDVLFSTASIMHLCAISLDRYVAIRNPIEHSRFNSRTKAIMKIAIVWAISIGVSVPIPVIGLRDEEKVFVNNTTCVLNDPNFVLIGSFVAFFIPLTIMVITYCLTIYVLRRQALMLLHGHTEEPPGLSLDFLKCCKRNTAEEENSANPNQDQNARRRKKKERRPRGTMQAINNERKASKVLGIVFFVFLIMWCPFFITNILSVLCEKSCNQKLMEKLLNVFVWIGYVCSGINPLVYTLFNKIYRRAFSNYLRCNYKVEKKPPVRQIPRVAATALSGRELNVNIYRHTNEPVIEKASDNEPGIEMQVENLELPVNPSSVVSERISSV

[4] = biological target: 5-HT1B (Homo sapiens, UniProt P28222); assay: NIMH PDSP primary binding screen, 5-HT1B; details: read-out: Inhibition (%) 5-HT1B
[5] = biological target: T2, 5-HT1A (Homo sapiens, UniProt P08908); assay: NIMH PDSP primary binding screen, 5-HT1A; details: read-out: Inhibition (%) 5-HT1A
T2 sequence (P08908 1-422): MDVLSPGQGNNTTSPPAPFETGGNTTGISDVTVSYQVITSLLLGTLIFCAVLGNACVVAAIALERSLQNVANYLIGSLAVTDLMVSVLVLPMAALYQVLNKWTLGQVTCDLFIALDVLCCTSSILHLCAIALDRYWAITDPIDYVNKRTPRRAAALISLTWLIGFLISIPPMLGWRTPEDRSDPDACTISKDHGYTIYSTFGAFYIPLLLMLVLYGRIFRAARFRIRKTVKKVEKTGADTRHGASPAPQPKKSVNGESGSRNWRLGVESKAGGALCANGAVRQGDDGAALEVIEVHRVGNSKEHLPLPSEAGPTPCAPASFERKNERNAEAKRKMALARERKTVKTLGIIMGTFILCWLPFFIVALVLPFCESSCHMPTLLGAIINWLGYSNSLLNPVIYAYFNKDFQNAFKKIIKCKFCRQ

Sequence of 5-HT1B (P28222 whole entry, species assumed): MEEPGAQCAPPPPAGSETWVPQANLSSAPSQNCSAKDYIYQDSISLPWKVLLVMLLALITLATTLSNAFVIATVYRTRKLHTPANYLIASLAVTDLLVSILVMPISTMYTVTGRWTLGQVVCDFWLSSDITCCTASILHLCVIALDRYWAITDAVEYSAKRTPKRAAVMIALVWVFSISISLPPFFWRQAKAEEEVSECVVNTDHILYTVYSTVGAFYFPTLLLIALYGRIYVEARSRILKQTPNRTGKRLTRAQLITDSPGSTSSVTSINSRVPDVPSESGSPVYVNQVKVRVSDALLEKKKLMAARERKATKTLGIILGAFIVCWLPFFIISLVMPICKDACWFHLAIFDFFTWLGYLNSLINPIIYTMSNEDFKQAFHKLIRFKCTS
Sequence of 5-HT2A (P28223 whole entry, species assumed): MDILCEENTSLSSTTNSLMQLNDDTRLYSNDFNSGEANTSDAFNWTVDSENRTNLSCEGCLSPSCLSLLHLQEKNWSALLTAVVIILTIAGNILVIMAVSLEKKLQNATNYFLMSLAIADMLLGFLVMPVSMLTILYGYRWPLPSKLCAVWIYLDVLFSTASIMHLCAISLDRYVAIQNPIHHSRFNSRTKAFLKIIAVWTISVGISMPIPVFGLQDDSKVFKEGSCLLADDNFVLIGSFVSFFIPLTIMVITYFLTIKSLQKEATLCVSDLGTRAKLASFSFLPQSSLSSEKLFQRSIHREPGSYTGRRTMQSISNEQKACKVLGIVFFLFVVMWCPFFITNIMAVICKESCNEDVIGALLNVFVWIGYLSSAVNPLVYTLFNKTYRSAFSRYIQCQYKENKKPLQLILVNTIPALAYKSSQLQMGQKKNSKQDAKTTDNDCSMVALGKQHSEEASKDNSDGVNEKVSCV

- inhibition at 10 µM [1]: 17.4 ± 4.69%
- half-life at 1 µM [2]: 25.6 min
- microsomal CLint at 1 µM [2]: 54 µL/min/mg
- inhibition at 10 µM [3]: 21.5 ± 4.63%
- inhibition at 10 µM [4]: 12.4 ± 2.29%
- inhibition at 10 µM [5]: 4.83 ± 2.43%
SMILES: O=C(Nc1ccc(-c2ccc3ccncc3c2)cc1)C1CCN(S(=O)(=O)c2ccccc2Cl)CC1 [Compound 4f, 1-((2-chlorophenyl)sulfonyl)-N-(4-(isoquinolin-7-yl)phenyl)piperidine-4-carboxamide]
